# Data reported in US8673955B2, “Imidazole derivatives as fructose-1,6-bisphosphatase inhibitors and pharmaceutical compositions containing them” (Merck Patent GmbH, priority 2005, dated 2014).
# Like-named read-outs stand apart in the source and are kept apart here.
# Columns and labels:
# [1] = target: T1, human liver recombinant Fructose-1,6-bisphosphatase (Homo sapiens, UniProt P09467); assay: Inhibition of human liver recombinant fructose-1,6-bisphosphatase, coupled spectrophotometric enzyme assay; assay type: biochemical
# T1 sequence (P09467 1-338): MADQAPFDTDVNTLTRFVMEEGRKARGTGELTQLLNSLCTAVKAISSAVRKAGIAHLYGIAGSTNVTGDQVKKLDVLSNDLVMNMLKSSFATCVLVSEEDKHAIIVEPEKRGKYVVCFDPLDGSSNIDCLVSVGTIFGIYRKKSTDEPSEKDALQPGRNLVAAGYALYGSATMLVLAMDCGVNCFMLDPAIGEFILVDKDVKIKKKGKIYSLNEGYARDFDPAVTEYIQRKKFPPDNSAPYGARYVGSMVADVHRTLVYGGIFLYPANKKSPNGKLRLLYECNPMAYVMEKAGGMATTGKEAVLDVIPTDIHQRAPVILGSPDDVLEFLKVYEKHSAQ
# Method: Enzymatic activity was measured spectrophotometrically in reactions that coupled the formation of product (fructose 6-Phosphate) to the reduction of NADP+, using phosphoglucoisomerase (PGI) and glucose 6-phosphate dehydrogenase (G6PDH) as the coupling enzymes.
# Reaction mixtures (250 μl) were made up in 96-well microtitre plates, and consisted of 20 mM triethanolamine, pH 7.5, 2 mM MgCl2, 0.1 mM EDTA, 40 mM ammonium sulfate, 0.5 mM NADP, 1 U/ml G6PDH, 1 U/ml PGI and 0.167 mM substrate (Fructose 1,6-bisphosphate). The inhibitors were prepared at 10^-2 M in DMSO 100% and tested at 10^-5 M (DMSO 0.1%).
# Reactions were started by the addition of the human liver recombinant Fructose-1,6-bisphosphatase and were monitored for 30 minutes at 340 nm in a Tecan Plate Reader (Room temperature).
# [2] = test system: primary culture of rat hepatocytes; assay: Hepatic glucose production in primary culture of rat hepatocytes (DHA as gluconeogenic precursor); assay type: cell-based; settings: 100 μM compound; 3 h incubation with DHA; control without compound = 100%
# Method: Effects of the compounds previously described on hepatic glucose production in primary culture of rat hepatocytes.
# Hepatocytes were isolated from normal Wistar rats in overnight fasted condition by collagenase perfusion as described by Seglen (Methods Cell Biol., (1975); 13, 29-83). Cell viability was assessed by the trypan blue exclusion test. The isolated hepatocytes were suspended in William's medium containing 10% fetal bovine serum in 6 well plates. After cell attachment (4 h) the medium was changed to remove cellular debris and replaced by serum-free minimum essential medium without glucose and the hepatocytes were cultured for 16-18 h (37° C.; 5%, CO2). At the end of the culture and after removing the medium, glucose production was assessed by incubating hepatocytes for 3 h in KREBS buffer supplemented with dihydroxyacetone (DHA) as a gluconeogenic precursor in the presence or not of the different compounds previously described. After the 3 h incubation time, the amount of glucose in the buffer was assayed by a glucose oxidase method (GOD). The total amount of cellular protein per well was measured by the method of Lowry. The results were expressed as nanomoles of glucose produced per mg cell protein. The activity of the tested compounds was expressed as % of control glucose production in presence of DHA and without compound (100%).
# [3] = stated in method text, read-out: IC50 for reference inhibitors of Fructose-1,6-bisphosphatase
# [4] = 0.167 mM fructose 1,6-bisphosphate, pH 7.5, room temperature, read-out: Inhibition of human F-1,6-Bpase IC50
Structure (SMILES),"IC50 [1, 3]","IC50 [1, 4]",Hepatic glucose production (rat hepatocytes) % of control at 100 μM [2]
"Nc1ncnc2c1ncn2[C@@H]1O[C@H](COP(=O)(O)O)[C@@H](O)[C@H]1O [AMP, reference compound]",~10 µM,,
"O=C(O)c1ccc(Cn2cc(COCc3cccc(-c4ccccc4)c3)nc2-c2ccc(Cl)s2)cc1 [Example 20, 4-[4-(Biphenyl-3-ylmethoxymethyl)-2-(5-chlorothiophen-2-yl)imidazol-1-ylmethyl]benzoic acid]",,70.2 µM,10 % of control
"Cc1nc(-c2ccc3ccc(COCc4cn(Cc5ccc(C(=O)O)cc5)c(-c5ccc(Cl)s5)n4)cc3c2)no1 [Example 26, 4-{2-(5-Chlorothiophen-2-yl)-4-[7-(5-methyl-[1,2,4]-oxadiazol-3-yl)naphthalen-2-ylmethoxymethyl]imidazol-1-ylmethyl}benzoic acid]",,51.2 µM,44 % of control
"O=C(O)c1ccc(Cn2cc(COCc3ccc(Cl)cc3)nc2-c2ccc(Br)cc2)cc1 [Example 47, 4-[2-(4-Bromophenyl)-4-(4-chlorobenzyloxymethyl)imidazol-1-ylmethyl]benzoic acid]",,88.3 µM,61 % of control
"O=P(O)(O)OC[C@H]1O[C@@](CO)(OP(=O)(O)O)[C@@H](O)[C@@H]1O [Fructose-2,6-Bisphosphate, reference compound]",~35 µM,,
